The target in the experiment is T1, human MGL from HeLa cells (Homo sapiens, UniProt Q99685).
T1 construct: combining endogenously expressed MGL from HeLa cells with test compounds; endogenous in cells; host or cells: HeLa cells / cell homogenates
T1 sequence (Q99685 1-303): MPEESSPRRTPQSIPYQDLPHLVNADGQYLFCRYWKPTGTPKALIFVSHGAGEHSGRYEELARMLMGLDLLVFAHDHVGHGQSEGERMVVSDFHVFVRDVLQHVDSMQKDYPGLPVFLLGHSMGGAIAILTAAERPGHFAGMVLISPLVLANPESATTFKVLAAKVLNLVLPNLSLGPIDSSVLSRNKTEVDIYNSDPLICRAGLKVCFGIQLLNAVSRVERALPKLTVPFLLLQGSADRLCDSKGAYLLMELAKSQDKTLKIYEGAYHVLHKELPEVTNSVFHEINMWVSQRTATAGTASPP
Kind of experiment: In vitro MGL activity assay: [glycerol-1,3-3H]-oleyl glycerol cleavage by MGL from HeLa cells. Format: biochemical. The conditions noted are these: 300 nM [Glycerol-1,3-3H]-oleyl glycerol, one hour incubation. The text has this: MGL is the predominant hydrolase in HeLa cells/cell homogenates.
With `C[C@@H]1c2nn(C)c(-c3cc(F)c(F)c(F)c3)c2CCN1C(=O)c1ccc2ncccc2c1` [Example 235, (R)-(2,7-Dimethyl-3-(3,4,5-trifluorophenyl)-2,4,5,7-tetrahydro-6H-pyrazolo[3,4-c]pyridin-6-yl)(quinolin-6-yl)methanone], the IC50 was found to be 3660 nM.
Consider `C[C@H]1c2nn(C)c(-c3cc(F)c(F)c(F)c3)c2CCN1C(=O)c1cccc2cccnc12` [Example 236, (S)-(2,7-Dimethyl-3-(3,4,5-trifluorophenyl)-2,4,5,7-tetrahydro-6H-pyrazolo[3,4-c]pyridin-6-yl)(quinolin-8-yl)methanone], for which the IC50 came to 5.79 nM.
`C[C@H]1c2nn(C)c(-c3cc(F)c(F)c(F)c3)c2CCN1C(=O)c1nccc2ccccc12` [Example 237, (S)-(2,7-Dimethyl-3-(3,4,5-trifluorophenyl)-2,4,5,7-tetrahydro-6H-pyrazolo[3,4-c]pyridin-6-yl)(isoquinolin-1-yl)methanone] had an IC50 of 1.89 nM.
`C[C@H]1c2nn(C)c(-c3cc(F)c(F)c(F)c3)c2CCN1C(=O)c1ccnc2c(F)cccc12` [Example 238, (S)-(2,7-Dimethyl-3-(3,4,5-trifluorophenyl)-2,4,5,7-tetrahydro-6H-pyrazolo[3,4-c]pyridin-6-yl)(8-fluoroquinolin-4-yl)methanone]: the IC50 worked out at 2.69 nM.
Compound `Cc1cc(C(=O)N2CCc3c(nn(C)c3-c3cc(F)c(F)c(F)c3)[C@@H]2C)c2ccccc2n1` [Example 239, (S)-(2,7-Dimethyl-3-(3,4,5-trifluorophenyl)-2,4,5,7-tetrahydro-6H-pyrazolo[3,4-c]pyridin-6-yl)(2-methylquinolin-4-yl)methanone] yielded an IC50 of 3.74 nM.
`COc1cc(C(=O)N2CCc3c(nn(C)c3-c3cc(F)c(F)c(F)c3)[C@@H]2C)c2ccccc2n1` [Example 240, (S)-(2,7-Dimethyl-3-(3,4,5-trifluorophenyl)-2,4,5,7-tetrahydro-6H-pyrazolo[3,4-c]pyridin-6-yl)(2-methoxyquinolin-4-yl)methanone] yielded an IC50 of 0.69 nM.
`Cc1cc(C(=O)N2CCc3c(nn(C)c3-c3cc(F)c(F)c(F)c3)[C@@H]2C)c2cccc(F)c2n1` [Example 241, (S)-(2,7-Dimethyl-3-(3,4,5-trifluorophenyl)-2,4,5,7-tetrahydro-6H-pyrazolo[3,4-c]pyridin-6-yl)(8-fluoro-2-methylquinolin-4-yl)methanone] had an IC50 of 6.56 nM.
Then `C[C@H]1c2nn(C)c(-c3cc(F)c(F)c(F)c3)c2CCN1C(=O)c1ccc2nccnc2c1` [Example 242, (S)-(2,7-Dimethyl-3-(3,4,5-trifluorophenyl)-2,4,5,7-tetrahydro-6H-pyrazolo[3,4-c]pyridin-6-yl)(quinoxalin-6-yl)methanone], with 22.3 nM.
In the case of `Cc1cnc2cc(C(=O)N3CCc4c(nn(C)c4-c4cc(F)c(F)c(F)c4)[C@@H]3C)ccc2n1` [Example 243, (S)-(2,7-Dimethyl-3-(3,4,5-trifluorophenyl)-2,4,5,7-tetrahydro-6H-pyrazolo[3,4-c]pyridin-6-yl)(2-methylquinoxalin-6-yl)methanone], the IC50 came out at 25 nM.
As for `C[C@H]1c2nn(C)c(-c3cc(F)c(F)c(F)c3)c2CCN1C(=O)c1ccc2ncccc2n1` [Example 244, (S)-(2,7-Dimethyl-3-(3,4,5-trifluorophenyl)-2,4,5,7-tetrahydro-6H-pyrazolo[3,4-c]pyridin-6-yl)(1,5-naphthyridin-2-yl)methanone], half-maximal inhibition (IC50) required 14.1 nM.
Turning to `C[C@H]1c2nn(C)c(-c3cc(F)c(F)c(F)c3)c2CCN1C(=O)c1cnc2cccnc2c1` [Example 245, (S)-(2,7-Dimethyl-3-(3,4,5-trifluorophenyl)-2,4,5,7-tetrahydro-6H-pyrazolo[3,4-c]pyridin-6-yl)(1,5-naphthyridin-3-yl)methanone], inhibition was half-maximal at 122 nM (IC50).
In turn, `C[C@H]1c2nn(C)c(-c3cc(F)c(F)c(F)c3)c2CCN1C(=O)c1cncc2cccnc12` [Example 246, (S)-(2,7-Dimethyl-3-(3,4,5-trifluorophenyl)-2,4,5,7-tetrahydro-6H-pyrazolo[3,4-c]pyridin-6-yl)(1,6-naphthyridin-8-yl)methanone] had an IC50 of 20 nM.
The result for `C[C@H]1c2nn(C)c(-c3ccc(C(F)(F)F)o3)c2CCN1C(=O)c1ccc2nccnc2c1` [Example 247, (S)-(2,7-Dimethyl-3-(5-(trifluoromethyl)furan-2-yl)-2,4,5,7-tetrahydro-6H-pyrazolo[3,4-c]pyridin-6-yl)(quinoxalin-6-yl)methanone] reads 186 nM; that for `C[C@H]1c2nn(C)c(-c3cncc(C(F)(F)F)c3)c2CCN1C(=O)c1ccc2nccnc2c1` [Example 248, (S)-(2,7-Dimethyl-3-(5-(trifluoromethyl)pyridin-3-yl)-2,4,5,7-tetrahydro-6H-pyrazolo[3,4-c]pyridin-6-yl)(quinoxalin-6-yl)methanone], 2230 nM.
Then `CC1c2nn(C)c(-c3cccc4c3ccn4C)c2CCN1C(=O)c1ccc2ncccc2c1` (stereo not shown) [Example 249, (2,7-Dimethyl-3-(1-methyl-1H-indol-4-yl)-2,4,5,7-tetrahydro-6H-pyrazolo[3,4-c]pyridin-6-yl)(quinolin-6-yl)methanone], with 1530 nM; and `CC1c2nn(C)c(-c3cc4ccccc4n3C)c2CCN1C(=O)c1ccc2ncccc2c1` (stereo not shown) [Example 250, (2,7-Dimethyl-3-(1-methyl-1H-indol-2-yl)-2,4,5,7-tetrahydro-6H-pyrazolo[3,4-c]pyridin-6-yl)(quinolin-6-yl)methanone], with 206 nM.
For the compound `CC1c2nn(C)c(-c3cn(C)c4ccccc34)c2CCN1C(=O)c1ccc2ncccc2c1` (stereo not shown) [Example 251, (2,7-Dimethyl-3-(1-methyl-1H-indol-3-yl)-2,4,5,7-tetrahydro-6H-pyrazolo[3,4-c]pyridin-6-yl)(quinolin-6-yl)methanone], the IC50 came to 1890 nM.
Compound `CC1c2nn(C)c(-c3ccc4c(ccn4C)c3)c2CCN1C(=O)c1ccc2ncccc2c1` (stereo not shown) [Example 252, (2,7-Dimethyl-3-(1-methyl-1H-indol-5-yl)-2,4,5,7-tetrahydro-6H-pyrazolo[3,4-c]pyridin-6-yl)(quinolin-6-yl)methanone] returned an IC50 of 631 nM.
The result for `CC1c2nn(C)c(-c3cccc4ccn(C)c34)c2CCN1C(=O)c1ccc2ncccc2c1` (stereo not shown) [Example 253, (2,7-Dimethyl-3-(1-methyl-1H-indol-7-yl)-2,4,5,7-tetrahydro-6H-pyrazolo[3,4-c]pyridin-6-yl)(quinolin-6-yl)methanone] reads 1610 nM; that for `COc1cccc(C(=O)N2CCc3c(nn(-c4ccccc4)c3-c3ccccc3)[C@@H]2C)c1` [Example 257, (3-Methoxyphenyl)-[(7S)-7-methyl-2,3-diphenyl-5,7-dihydro-4H-pyrazolo[3,4-c]pyridin-6-yl]methanone], 101 nM; that for `COc1ccc(C(=O)N2CCc3c(nn(C)c3-c3cc(C)cc(F)c3)[C@@H]2C)cc1` [Example 258, [(7S)-3-(3-Fluoro-5-methyl-phenyl)-2,7-dimethyl-5,7-dihydro-4H-pyrazolo[3,4-c]pyridin-6-yl]-(4-methoxyphenyl)methanone], 68.5 nM.
The compound `COc1ccccc1C(=O)N1CCc2c(nn(C)c2-c2cc(F)c(F)c(F)c2)[C@@H]1C` [Example 259, [(7S)-2,7-Dimethyl-3-(3,4,5-trifluorophenyl)-5,7-dihydro-4H-pyrazolo[3,4-c]pyridin-6-yl]-(2-methoxyphenyl)methanone] returned an IC50 of 12.6 nM.
The result for `COc1cccc(C(=O)N2CCc3c(nn(C)c3-c3cc(F)c(F)c(F)c3)[C@@H]2C)c1` [Example 260, [(7S)-2,7-Dimethyl-3-(3,4,5-trifluorophenyl)-5,7-dihydro-4H-pyrazolo[3,4-c]pyridin-6-yl]-(3-methoxyphenyl)methanone] reads 7.25 nM; that for `COc1ccc(C(=O)N2CCc3c(nn(C)c3-c3cc(F)c(F)c(F)c3)[C@@H]2C)cc1` [Example 261, [(7S)-2,7-Dimethyl-3-(3,4,5-trifluorophenyl)-5,7-dihydro-4H-pyrazolo[3,4-c]pyridin-6-yl]-(4-methoxyphenyl)methanone], 29.4 nM.
With `C[C@H]1c2nn(C)c(-c3cc(F)c(F)c(F)c3)c2CCN1C(=O)c1cccc(OC(F)(F)F)c1` [Example 262, [(7S)-2,7-Dimethyl-3-(3,4,5-trifluorophenyl)-5,7-dihydro-4H-pyrazolo[3,4-c]pyridin-6-yl]-[3-(trifluoromethoxy)phenyl]methanone], it took 52.8 nM to reach half-maximal inhibition (IC50).
The compound `C[C@H]1c2nn(C)c(-c3cc(F)c(F)c(F)c3)c2CCN1C(=O)c1ccccc1OC(F)(F)F` [Example 263, [(7S)-2,7-Dimethyl-3-(3,4,5-trifluorophenyl)-5,7-dihydro-4H-pyrazolo[3,4-c]pyridin-6-yl]-[2-(trifluoromethoxy)phenyl]methanone] yielded an IC50 of 28.3 nM.
`C[C@H]1c2nn(C)c(-c3cc(F)c(F)c(F)c3)c2CCN1C(=O)c1ccc(OC(F)F)cc1` [Example 264, [4-(Difluoromethoxy)phenyl]-[(7S)-2,7-dimethyl-3-(3,4,5-trifluorophenyl)-5,7-dihydro-4H-pyrazolo[3,4-c]pyridin-6-yl]methanone] came in with an IC50 of 213 nM.
The result for `COc1ccc(C(=O)N2CCc3c(nn(C)c3-c3cc(F)c(F)c(F)c3)[C@@H]2C)c(F)c1` [Example 265, [(7S)-2,7-Dimethyl-3-(3,4,5-trifluorophenyl)-5,7-dihydro-4H-pyrazolo[3,4-c]pyridin-6-yl]-(2-fluoro-4-methoxy-phenyl)methanone] reads 35 nM.

Source of the values: US11820766B2, “Monoacylglycerol lipase modulators” (Janssen Pharmaceutica NV, priority 2018, dated 2023).
